The values that follow come from US7960392B2, “Nitrogen-containing heterocyclic compounds” (Asahi Kasei Pharma Corporation, priority 2008, dated 2011).

A value given as a limit tells only on which side of the number the result lay.

The target of assay [1] is T1, human EP1 receptor (Homo sapiens, UniProt P34995).
T1 construct: expressed in transfected cells
T1 sequence (P34995 1-402): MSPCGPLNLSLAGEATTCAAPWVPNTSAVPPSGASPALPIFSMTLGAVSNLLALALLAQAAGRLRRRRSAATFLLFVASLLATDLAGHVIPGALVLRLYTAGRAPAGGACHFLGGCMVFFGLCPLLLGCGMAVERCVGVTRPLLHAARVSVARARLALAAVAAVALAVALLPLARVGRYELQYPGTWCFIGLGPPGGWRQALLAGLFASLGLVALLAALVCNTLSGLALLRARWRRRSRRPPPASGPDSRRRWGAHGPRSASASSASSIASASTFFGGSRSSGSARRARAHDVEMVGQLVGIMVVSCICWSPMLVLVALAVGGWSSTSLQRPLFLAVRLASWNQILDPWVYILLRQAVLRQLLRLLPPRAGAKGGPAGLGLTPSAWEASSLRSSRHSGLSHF
As to the kind of experiment: Antagonist activity (SRE-Luciferase reporter activity) using cells expressing human EP1 receptor. It counts as cell-based. The settings on record: HEK293 cells stably expressing human EP1 receptor with SRE-Luciferase reporter; PGE2 final concentration 10 nM; 37° C. for 6 hours; read-out: IC50 value, antagonist activity measurement test using the cells expressing human EP1 receptor. Here is the method: (§1) Measurement of an Antagonist Activity by Using Cells Expressing Human EP1 Receptor
In order to investigate the EP1 receptor antagonist activity of the compounds of the present invention, a reporter activity was measured by using HEK293 cells in which human EP1 receptor has been stably expressed.
As a result of searching Refseq Database for prostaglandin E receptor, genetic information of human EP1 (NM_000955) receptor was obtained. Based on this sequence information, human EP1 receptor gene was cloned by PCR using human cDNA as a template and by other general method to give human EP1 receptor. Then, HEK293 in which the receptor is stably expressed was established, together with a reporter gene (SRE-Luciferase) in which serum responsible element (SRE) is added at the upstream region of firefly luciferase gene. The resulting cells were added to a 96 well plate (5×10^4 cells/well) and cultured for one day. To the plate, PGE2 (200 nM, final concentration 10 nM) and the test compound (in an amount of 1/20, 20× of the final concentration) were added to initiate the reaction. After allowing the reaction to proceed at 37° C. for 6 hours, the medium was aspirated off, added with a luminescent agent and the reporter activity was measured.
On the technique in general: A reporter such as luciferase makes a cellular process visible.

Assay [2] deals with T1, human EP1 receptor. As to the kind of experiment: Antagonist activity (intracellular Ca2+ assay) using cells expressing human EP1 receptor. It counts as cell-based. The settings on record: HEK293 cells stably expressing human EP1 receptor; inhibition of increase in intracellular Ca2+ concentration by PGE2 (10 nM); Fura 2-AM. Here is the method:
as §1
In order to investigate the EP1 receptor antagonist activity of the compounds of the present invention, intracellular Ca^2+ was measured by using HEK293 cells in which human EP1 receptor has been stably expressed.
Cells expressing human EP1 receptor were suspended in an assay buffer to the concentration of 5×10^6 cells/ml, added with Puronic F-127 (final concentration 0.2%), and Fura 2-AM (final concentration 5 uM), followed by incubation at 37° C. for 30 minutes. After washing twice with the assay buffer, the cells were again suspended in the assay buffer to 1×10^6 cells/60 ul, and then transferred to a 96 well UV plate (1×10^6 cells/60 ul/well). Thereafter, by using a fluorescent chemical screening system (FDSS4000, Hamamatsu Photonics K.K.), intracellular Ca^2+ concentration was measured after adding 20 ul of each of the test compounds and PGE2 (5× of the final concentration for both). Ca^2+ concentration was measured by determining fluorescence intensity after irradiation with two excitation wavelengths, i.e., 340 and 380 nm.
Furthermore, EP1 antagonist activity was calculated as a ratio (%) of inhibiting increase in intracellular Ca^2+ concentration by PGE2 (10 nM).
Assay buffer: 20 mM HEPES/KOH (pH 7.4), 115 mM NaCl, 5.4 mM KCl, 0.8 mM MgCl2, 0.8 mM CaCl2, 13.8 mM D-glucose, 0.1% BSA

A further assay concerns female SD rat. The experiment in a line: Micturition interval prolongation in an anesthetized rat-II. The format is in vivo. The settings on record: urethane-anesthetized female SD rat; 0.2% acetic acid in physiological saline infused to the bladder; administered to the left femoral vein. Here is the method: Micturition Interval Prolongation in an Anesthetized Rat-II
Activity of prolonging micturition interval in an anesthetized rat was determined with reference to the method established by Maggi, et al. (Eur. J. Pharmacol. 145, p. 105-112 (1988)). Specifically, a female SD rat was anesthetized with urethane and fixed in a flat position, and a catheter was inserted through an external urethral opening. Using a three-way stop cock, it was connected to a pressure transducer and a syringe pump. While infusing physiological saline including 0.2% acetic acid to the bladder at constant rate, cystometrogram was recorded. After confirming stabilized micturition interval, micturition threshold pressure and maximal voiding pressure, a solvent or the compound to be tested was administered to the left femoral vein and an activity of prolonging micturition interval was determined as an efficacy of the drug compound. Each group included five animals.

Assay [3] has as its target T1, human EP1 receptor. As to the kind of experiment: Receptor binding test ([3H]PGE2 binding inhibition) using cells expressing human EP1 receptor. The settings on record: membrane fraction of HEK293 cells stably expressing human EP1 receptor; [3H]PGE2 1 nM; 30° C. for 90 minutes; Ki=IC50/(1+[C]/Kd). As for the experimental part: Receptor Binding Test Using Cells Expressing Human EP1 Receptor
Inhibitory activity of the test compounds on binding of [^3H]PGE2 in HEK293 cells stably expressing human EP1 receptor was measured.
HEK293 cells which stably express human EP1 receptor were established by using the gene for human EP1 receptor, and then a membrane fraction was prepared therefrom. Thus-prepared membrane fraction was incubated at 30° C. for 90 minutes with a reaction solution (200 μL/well) which includes the test compound and [^3H]PGE2. Upon the completion of the reaction, the reaction solution was aspirated off under reduced pressure, and the [^3H]PGE2 bound to the membrane fraction was trapped by using Unifilter Plateg F/C (manufactured by Packard) and the bound radioactivity was counted with a liquid scintillator.
Kd value was obtained from a Scatchard plot. Non-specific binding was obtained from the binding in the presence of an excess amount (10 μM) of non-labeled PGE2. For the measurement of an inhibitory activity of the test compound on [^3H]PGE2 binding, [^3H]PGE2 (1 nM) and various concentrations of the test compound were added. Meanwhile, for all of the reactions, the buffer as described below was used.
Buffer;10 mM MES/NaOH (pH 6.0), 10 mM MgCl2, 1 mM EDTA, 0.1% BSA
Dissociation constant of the compounds, i.e., Ki, was obtained according to the following equation. […]

The next assay relates to male SD rat. As to the kind of experiment: Micturition interval prolongation in an awaken rat-II. It counts as in vivo. The settings on record: cystitis induced by 0.3% acetic acid, intravenous administration, 60 minutes post- vs 30 minutes pre-administration. The text has this: Micturition Interval Prolongation in an Awaken Rat-II As a test animal, a male SD rat (Charles River Corporation, Japan) was used. The rat was anesthetized by isofluran inhalation (nitrous oxide:oxygen=7:3), and being laid on its stomach, it remained anesthetized by 2% isofluran inhalation. Then, an incision was made at the center region of the abdomen, and the bladder was exposed. A small incision was made to the vertex region of the bladder, and a polyethylene tube (PE-50: Becton Dickinson) was inserted to the bladder and fixed. One end of a cannula was subcutaneously directed to the backside of the animal, and after fixing the cannula to the abdomen wall, the incision was sealed. The cannula directed to the backside was connected to a seibel and the middle region was protected with a stainless spring. […] Then, through one end of the tube that had been inserted to the bladder, physiological saline warmed to 37° C. was injected at the rate of 3.0 mL/hr using a three-way stop cock, while the other end was connected to a pressure transducer and cystometrogram was recorded continuously with pressure amplification. The discharged urine was collected in a vessel placed on a digital balance and change in the urine weight was measured at the same time. […]

On to `Cc1c(-c2ccccc2)nn(Cc2nc(C(=O)O)cs2)c1-c1ccccc1` [Exp. 14, 2-{(4-Methyl-3,5-diphenyl-1H-pyrazol-1-yl)methyl}thiazole-4-carboxylic acid], for which the IC50 at human EP1 receptor [1] lay in the range of 300 to 1000 nM.
Turning to `O=C(O)c1csc(-n2nc(-c3ccccc3O)cc2-c2ccccc2)n1` [Exp. 20], the IC50 on human EP1 receptor [1] was in the range of 100 to 300 nM; against human EP1 receptor [2], 1000 to 3000 nM.
Regarding `Cc1c(-c2ccccc2)nn(-c2nc(C(=O)O)cs2)c1-c1ccccc1` [Exp. 30], the figures for the IC50 at human EP1 receptor [1] and against human EP1 receptor [2] were not above 100 nM and 300 to 1000 nM, respectively. The “Micturition interval prolonging activity” value with female SD rat was determined as 25.8%. The Ki on human EP1 receptor [3] was not above 300 nM.
In the case of `Nc1c(-c2ccccc2)nn(-c2nc(C(=O)O)cs2)c1-c1ccccc1` [Exp. 35], in the assay with male SD rat, the micturition volume result is listed as “increase in micturition volume” and the “prolongation in micturition interval” value is listed as “at least 30%”. For the same molecule, the IC50 on human EP1 receptor [1] is not above 100 nM. The same molecule returned an IC50 against human EP1 receptor [2] not above 300 nM. For the same molecule, the Ki at human EP1 receptor [3] is not above 300 nM.
With `O=C(O)c1csc(-n2nc(-c3ccccc3)c(F)c2-c2ccccc2)n1` [Exp. 36], the results for the IC50 at human EP1 receptor [1] and against human EP1 receptor [2] were not above 100 nM and 300 to 1000 nM, respectively.
In the case of `O=C(O)c1csc(-n2nc(-c3ccccc3)c(Cl)c2-c2ccccc2)n1` [Exp. 37], the IC50 on human EP1 receptor [1] was not above 100 nM; against human EP1 receptor [2] it was 300 to 1000 nM.
Take `O=C(O)c1csc(-n2nc(-c3ccccc3)c(Br)c2-c2ccccc2)n1` [Exp. 38]: the IC50 was not above 100 nM at human EP1 receptor [1] and not above 300 nM against human EP1 receptor [2].
For `COc1ccccc1-c1c(C)c(-c2ccccc2)nn1-c1nc(C(=O)O)cs1` [Exp. 42], at human EP1 receptor [1], the IC50 is 300 to 1000 nM.
For the molecule `Cc1c(-c2ccccc2)nn(-c2nc(C(=O)O)cs2)c1-c1cccc(F)c1` [Exp. 44], at human EP1 receptor [1], the concentration for half-maximal inhibition (IC50) was not above 100 nM.
As for `Cc1c(-c2ccccc2)nn(-c2nc(C(=O)O)cs2)c1-c1cccc(O)c1` [Exp. 48], on human EP1 receptor [1], the IC50 is 100 to 300 nM.
`Cc1c(-c2ccccc2)nn(-c2nc(C(=O)O)cs2)c1-c1ccc(F)cc1` [Exp. 54]: at human EP1 receptor [1], the IC50 is not above 100 nM.
For `Cc1c(-c2ccccc2)nn(-c2nc(C(=O)O)cs2)c1-c1cc(F)cc(F)c1` [Exp. 80], the 50% inhibitory concentration (IC50) at human EP1 receptor [1] was not above 100 nM.
With `Cc1c(-c2ccccc2)nn(-c2nc(C(=O)O)cs2)c1-c1cc(F)ccc1F` [Exp. 88], the IC50 at human EP1 receptor [1] fell in the range of 100 to 300 nM.
On to `Cc1c(-c2ccccc2)nn(-c2nc(C(=O)O)cs2)c1-c1cc(F)c(F)c(F)c1` [Exp. 90], for which the IC50 at human EP1 receptor [1] is 100 to 300 nM.
Consider `Cc1c(-c2ccccc2)nn(-c2nc(C(=O)O)cs2)c1-c1cccs1` [Exp. 91], for which the IC50 at human EP1 receptor [1] was in the range of 100 to 300 nM.
Consider `Cc1c(-c2ccccc2)nn(-c2nc(C(=O)O)cs2)c1-c1ccsc1` [Exp. 92], for which, on human EP1 receptor [1], the IC50 is not above 100 nM.
With `Cc1c(-c2ccccc2)nn(-c2nc(C(=O)O)cs2)c1-c1ccco1` [Exp. 94], the results for the IC50 on human EP1 receptor [1] and at human EP1 receptor [2] were not above 100 nM and 300 to 1000 nM, respectively.
As to `Cc1c(-c2ccccc2)nn(-c2nc(C(=O)O)cs2)c1-c1ccoc1` [Exp. 95], the results for the IC50 on human EP1 receptor [1] and against human EP1 receptor [2] were not above 100 nM and 300 to 1000 nM, respectively.
`Cc1c(-c2ccccc2)nn(-c2nc(C(=O)O)cs2)c1-c1cccc2cccnc12` [Exp. 105]: the IC50 on human EP1 receptor [1] was not above 100 nM.
In the case of `Cc1c(-c2ccccc2)nn(-c2nc(C(=O)O)cs2)c1C1=CCCCO1` [Exp. 111], the IC50 on human EP1 receptor [1] was not above 100 nM; on human EP1 receptor [2], not above 300 nM.
`O=C(O)c1csc(-n2nc(-c3ccccc3)c3c2-c2ccccc2C3)n1` [Exp. 114]: the IC50 on human EP1 receptor [1] was not above 100 nM; against human EP1 receptor [2], not above 300 nM.
For `O=C(O)c1csc(-n2nc3c(c2-c2ccccc2)CCc2ccccc2-3)n1` [Exp. 116], the results for the IC50 on human EP1 receptor [1] and against human EP1 receptor [2] were not above 100 nM and not above 300 nM, respectively.
Turning to `O=C(O)c1csc(-n2nc(-c3ccccc3)c3oc4ccccc4c32)n1` [Exp. 117], the IC50 at human EP1 receptor [1] was not above 100 nM.
On the same count and under the same terms, to `Cc1c(-c2ccccc2)nn(/C=C\c2nc(C(=O)O)cs2)c1-c1ccccc1` [Exp. 127] belongs 300 to 1000 nM; to `Cc1c(-c2ccccc2)nn(/C=C/c2nc(C(=O)O)cs2)c1-c1ccccc1` [Exp. 128], 100 to 300 nM.

A word on the IC50: it is the point on the concentration scale where inhibition reaches its midpoint. The Ki is a dissociation constant, usually derived from enzyme kinetics or from competition with a known ligand. A low value points to tighter binding.
